From patent US12661410B2, “Compounds for targeted degradation of RET” (C4 Therapeutics, Inc., priority 2020, dated 2026) come the findings set out here.

Numbering of substitutions follows the chain as printed. Like-named read-outs stand apart in the source and are kept apart here. A value given as a limit tells only on which side of the number the result lay.

The target in assay [1] is T1, RET (658-1114) (Homo sapiens, UniProt P07949).
T1 construct: 658-1114; expressed in transfected cells; host or cells: 293T.144 (293T cells, generated in-house)
T1 sequence (P07949 658-1114): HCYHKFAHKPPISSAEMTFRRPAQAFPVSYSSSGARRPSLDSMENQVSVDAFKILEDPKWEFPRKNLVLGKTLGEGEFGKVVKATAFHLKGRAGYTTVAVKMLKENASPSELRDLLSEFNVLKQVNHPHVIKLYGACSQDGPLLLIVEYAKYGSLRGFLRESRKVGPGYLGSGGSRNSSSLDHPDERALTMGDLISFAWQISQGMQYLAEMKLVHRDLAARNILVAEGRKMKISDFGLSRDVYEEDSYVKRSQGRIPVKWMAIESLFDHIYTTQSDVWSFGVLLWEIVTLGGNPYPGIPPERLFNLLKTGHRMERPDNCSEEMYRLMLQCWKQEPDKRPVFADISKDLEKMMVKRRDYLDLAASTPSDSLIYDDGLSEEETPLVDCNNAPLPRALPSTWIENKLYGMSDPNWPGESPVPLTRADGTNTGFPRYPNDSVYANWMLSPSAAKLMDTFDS
Description: HiBiT-Degradation, RET wild-type degradation assay (Nano-Glo HiBiT Lytic), 293T.144 cells. The assay is classed as cell-based. Particulars: for Emax / DC50: 6.0 hours; for Emax: read-out: 293T.144 RET (658-1114) 6.0 hours (Emax); for DC50: read-out: 293T.144 RET (658-1114) 6.0 hours (DC50). An excerpt: (§1) Dulbecco's modified Eagle medium (DMEM) no-phenol red media and fetal bovine serum (FBS) were purchased from Gibco (Grand Island, NY, USA). Cell lines ectopically expressing wild-type or G810R RET kinase domain fused with a HiBiT tag were generated in-house (293T. 144 and 293T. 165, respectively). Cell culture flasks and 384-well microplates were acquired from VWR (Radnor, PA, USA). The Nano-Glo® HiBiT Lytic Assay System was purchased from Promega (Madison, WI, USA).
(§2) RET wild-type (WT) and G810R degradation were assessed using the Nano-Glo® HiBiT Lytic assay (Promega, Medison, WI, USA). To determine the effect of degraders on protein levels, cells were plated in 384-well plates and treated with compounds of interest in duplicates for 6 hours using an 11-point half-log dilution series, with the highest dose set at 10 μM. Cell lysis and addition of the Nano-Glo® HiBiT Lytic Assay reagents was then performed. Luminescence signal was measured using an EnVision™ Multimode plate reader (Perkin Elmer, Santa Clara, CA, USA). The half-maximal degradation concentration (DC50) and % remaining protein (Emax) was then derived from the dose-response curves.

In assay [2] the target is T2, RET(KD: 658-1114 G810R) (Homo sapiens, UniProt P07949, G810R).
T2 construct: 658-1114; expressed in transfected cells; host or cells: 293T.165 (293T cells, generated in-house)
T2 sequence (P07949 658-1114 G810R): T1 sequence (P07949 658-1114) with G153R
The assay can be described thus: HiBiT-Degradation, RET G810R degradation assay (Nano-Glo HiBiT Lytic), 293T.165 cells. The assay is classed as cell-based. The conditions noted are these: for Emax / DC50: 6.0 hours; for Emax: % remaining protein, read-out: 293T.165 RET(KD: 658-1114 G810R) 6.0 hours (Emax); for DC50: read-out: 293T.165 RET(KD: 658-1114 G810R) 6.0 hours (DC50).
Description: as §1, §2

[3] abbreviates: half-maximal degradation concentration.

In the case of `COc1ccc(CN2[C@@H]3COC[C@H]2CN(c2ccc(-c4nc(-c5cnn([C@H]6CC[C@@H](N7CCN(c8cc9c(cc8F)c(N8CCC(=O)NC8=O)nn9C)CC7)CC6)c5)cn5ncc(C#N)c45)cn2)C3)cn1` (single isomer, unassigned) [Compound 152], the “293T.144 RET (658-1114) 6.0 hours (IP) [nM]” value (“293T.144 RET” for short) in assay [1] was “++++ (<50 nM = ++++)”. In addition, the maximum response (Emax) in assay [1] (% remaining protein) and in assay [2] was less than 30% throughout. The DC50 in assay [1] (setting [3]) and in assay [2] (setting [3]) was less than 50 nM in each case. Also, the “293T.165 RET(KD: 658-1114 G810R) 6.0 hours (IP) [nM]” value in assay [2] was “++++ (<50 nM = ++++)”.
For `CCC1(C(=O)NC(C)C)CCN(c2ccc(-c3nc(-c4cnn(C5CCN(C(=O)CN6CCC(c7ccc(NC8CCC(=O)NC8=O)cc7F)CC6)CC5)c4)cn4ncc(C#N)c34)cn2)CC1` (stereo not drawn) [Compound 53, 1-[5-[3-cyano-6-[1-[1-[2-[4-[4-[(2,6-dioxo-3-piperidyl)amino]-2-fluoro-phenyl]-1-piperidyl]acetyl]-4-piperidyl]pyrazol-4-yl]pyrazolo[1,5-a]pyrazin-4-yl]-2-pyridyl]-4-ethyl-N-isopropyl-piperidine-4-carboxamide], in assay [1] (HiBiT-Degradation), the “293T.144 RET” value is “++++ (< 50 nM = ++++)”, the DC50 was less than 50 nM and the Emax is less than 30%. Further, the Emax in assay [2] was less than 50%. Further, in assay [2] (setting [3]), the DC50 is less than 50 nM. In assay [2] (HiBiT-Degradation), the “293T.165 RET(KD: 658-1114 G810R) 6.0 hours (Emax)” value is reported as “+++ (<50% = +++)”, the “293T.165 RET(KD: 658-1114 G810R) 6.0 hours (IP) [nM]” value is “++++ (< 50 nM = ++++)” and the half-maximal degradation concentration (DC50) was less than 50 nM.
Turning to `N#Cc1cnn2cc(-c3cnn(C4CCN(C(=O)CC5(O)CCN(c6ccc(NC7CCC(=O)NC7=O)cc6F)CC5)CC4)c3)cc(-c3ccc(N4CCC(c5cccc(O)c5)CC4)nc3)c12` (stereo not drawn) [Compound 198, 6-[1-[1-[2-[1-[4-[(2,6-dioxo-3-piperidyl)amino]-2-fluoro-phenyl]-4-hydroxy-4-piperidyl]acetyl]-4-piperidyl]pyrazol-4-yl]-4-[6-[4-(3-hydroxyphenyl)-1-piperidyl]-3-pyridyl]pyrazolo[1,5-a]pyridine-3-carbonitrile], the “293T.144 RET” value in assay [1] is “++++ (<50 nM = ++++)”. Also, the Emax in assay [1] (% remaining protein) and in assay [2] was less than 30% in each case. Further, the DC50 in assay [1] (setting [3]) and in assay [2] (setting [3]) was less than 50 nM throughout. Further, the “293T.165 RET(KD: 658-1114 G810R) 6.0 hours (IP) [nM]” value in assay [2] is given as “++++ (<50 nM = ++++)”.
Consider `COc1ccc(CN2C3COCC2CN(c2ccc(-c4nc(-c5cnn([C@H]6CC[C@H](N7CCN(c8cc(OC)c(NC9CCC(=O)NC9=O)cc8F)CC7)CC6)c5)cn5ncc(C#N)c45)cn2)C3)cn1` (stereo partly drawn) [Compound 165, 6-[1-[4-[4-[4-[(2,6-dioxo-3-piperidyl)amino]-2-fluoro-5-methoxy-phenyl]piperazin-1-yl]cyclohexyl]pyrazol-4-yl]-4-[6-[9-[(6-methoxy-3-pyridyl)methyl]-3-oxa-7,9-diazabicyclo[3.3.1]nonan-7-yl]-3-pyridyl]pyrazolo[1,5-a]pyrazine-3-carbonitrile], for which the “293T.144 RET” value in assay [1] is “++++ (<50 nM = ++++)”. For the same compound, the Emax in assay [1] (% remaining protein) and in assay [2] was less than 30% in each case. Further, the DC50 is less than 50 nM in assay [1] (setting [3]) and less than 100 nM in assay [2] (setting [3]). Also, in assay [2], the “293T.165 RET(KD: 658-1114 G810R) 6.0 hours (IP) [nM]” value was “+++ (<100 nM = +++)”.
Regarding `N#Cc1cnn2cc(-c3cnn(C4CCN(C(=O)CC5(O)CCN(c6ccc(NC7CCC(=O)NC7=O)cc6F)CC5)CC4)c3)nc(-c3ccc(N4CCN(C(=O)c5ccon5)CC4)nc3)c12` (stereo not drawn) [Compound 116, 6-(1-(1-(2-(1-(4-((2,6-dioxopiperidin-3-yl)amino)-2-fluorophenyl)-4-hydroxypiperidin-4-yl)acetyl)piperidin-4-yl)-1H-pyrazol-4-yl)-4-(6-(4-(isoxazole-3-carbonyl)piperazin-1-yl)pyridin-3-yl)pyrazolo[1,5-a]pyrazine-3-carbonitrile], in assay [1], the “293T.144 RET” value is reported as “++++ (<50 nM = ++++)”. In addition, the Emax in assay [1] (% remaining protein) and in assay [2] was less than 30% each time. Further, the DC50 in assay [1] (setting [3]) and in assay [2] (setting [3]) was less than 50 nM throughout. The “293T.165 RET(KD: 658-1114 G810R) 6.0 hours (IP) [nM]” value in assay [2] is reported as “++++ (<50 nM = ++++)”.
In the case of `CCC1(C(=O)NC(C)C)CCN(c2ccc(-c3cc(-c4ccc(N5CCN(C(=O)CN6CCC(c7ccc(C8CCC(=O)NC8=O)cc7)CC6)CC5)cc4)cn4ncc(C#N)c34)cn2)CC1` (stereo not drawn) [Compound 29, 1-(5-(3-Cyano-6-(4-(4-(2-(4-(4-(2,6-dioxopiperidin-3-yl)phenyl)piperidin-1-yl)acetyl)piperazin-1-yl)phenyl)pyrazolo[1,5-a]pyridin-4-yl)pyridin-2-yl)-4-ethyl-N-isopropylpiperidine-4-carboxamide], the Emax in assay [2] is less than 50%. In addition, the DC50 in assay [2] (setting [3]) is less than 1000 nM.
Consider `N#Cc1cnn2cc(-c3ccc(N4CCN(C(=O)CN5CCC(c6ccc(NC7CCC(=O)NC7=O)cc6)CC5)CC4)cc3)cc(-c3ccc(C4(CO)CCCCC4)nc3)c12` (stereo not drawn) [Compound 21, 6-(4-(4-(2-(4-(4-((2,6-Dioxopiperidin-3-yl)amino)phenyl)piperidin-1-yl)acetyl)piperazin-1-yl)phenyl)-4-(6-(1-(hydroxymethyl)cyclohexyl)pyridin-3-yl)pyrazolo[1,5-a]pyridine-3-carbonitrile], for which the Emax in assay [2] was less than 50%. The DC50 in assay [2] (setting [3]) was less than 1000 nM.
The like results for `CC(C)NC(=O)C1(C)CCN(c2ccc(-c3cc(-c4ccc(N5CCN(C(=O)CC6(O)CCN(c7ccc(CN8CCC(=O)NC8=O)cc7)CC6)CC5)cc4)cn4ncc(C#N)c34)cn2)CC1` [Compound 33, 1-[5-[3-cyano-6-[4-[4-[2-[1-[4-[(2,4-dioxohexahydropyrimidin-1-yl)methyl]phenyl]-4-hydroxy-4-piperidyl]acetyl]piperazin-1-yl]phenyl]pyrazolo[1,5-a]pyridin-4-yl]-2-pyridyl]-N-isopropyl-4-methyl-piperidine-4-carboxamide] were, in that order, less than 70% and greater than 1000 nM.
The like results for `CCC1(C(=O)NC(C)C)CCN(c2ccc(-c3cc(-c4cnc(N5CCN(C(=O)CN6CCC(c7ccc(NC8CCC(=O)NC8=O)cc7F)CC6)CC5)nc4)cn4ncc(C#N)c34)cn2)CC1` (stereo not drawn) [Compound 37, 1-(5-(3-Cyano-6-(2-(4-(2-(4-(4-((2,6-dioxopiperidin-3-yl)amino)-2-fluorophenyl)piperidin-1-yl)acetyl)piperazin-1-yl)pyrimidin-5-yl)pyrazolo[1,5-a]pyridin-4-yl)pyridin-2-yl)-4-ethyl-N-isopropylpiperidine-4-carboxamide] were, in that order, less than 50% and less than 1000 nM.
In the case of `CCC1(C(=O)N[C@H](C)C(F)(F)F)CCN(c2ccc(-c3cc(-c4cnn(C5CCN(C(=O)CN6CCC(c7ccc(NC8CCC(=O)NC8=O)cc7F)CC6)CC5)c4)cn4ncc(C#N)c34)cn2)CC1` (stereo partly drawn) [Compound 7, 1-[5-[3-cyano-6-[1-[1-[2-[4-[4-[(2,6-dioxo-3-piperidyl)amino]-2-fluoro-phenyl]-1-piperidyl]acetyl]-4-piperidyl]pyrazol-4-yl]pyrazolo[1,5-a]pyridin-4-yl]-2-pyridyl]-4-ethyl-N-[(1R)-2,2,2-trifluoro-1-methyl-ethyl]piperidine-4-carboxamide], the maximum response (Emax) in assay [2] is less than 50%. Moreover, in assay [2] (setting [3]), the DC50 is less than 1000 nM.
